Common to all, as to assay type: cell-based, human
Test [1] concerns p38MAPK phosphorylation in HME cells. Nature of the test: Immunoblot of p38MAPK phosphorylation. Particulars: 10 μM CCT007093. Here is the method:
(§1) CCT007093 is a novel WIP1 specific inhibitor. The HME and induced IRIS3 (72 h) cells were untreated or exposed to 20 mJ/cm^2 UVC, 10 μM of CCT007093 or both. BRCA1-IRIS, p53 and WIP1 level was low in HME and high in IRIS3 cells, whereas p38MAPK was high in both the cell lines. These levels were not changed in both cell lines following any of the treatments (FIG. 9H). p-p53 level was low in untreated HME and IRIS3 cells (FIG. 9H, lanes 1 and 5), rose after UVC treatment, decreased after CCT007093 treatment and increased in UVC+CCT007093-treated HME cells (FIG. 9H) Importantly, in induced IRIS3 cells, p-p53 level decreased after UVC treatment, increased after CCT007093 treatment and remained high after the combined treatment (FIG. 9H).
(§2) BT474, MCF7 and SKBR3 cells were maintained in Roswell Park Memorial Institute medium (Invitrogen) supplemented with 10% fetal bovine serum and antibiotics. SOAS2 and HEK293T cells were maintained Dulbecco's Modified Eagle medium (Invitrogen) with 10% serum. HME maintenance was as described in ElShamy and Livingston, 2004. Cancer or HME cells were at 80% confluence in 10 cm^2 dishes and were treated with UVC (different doses), SB203580 (10 μM, Sigma, St. Louis, Mo., USA), etoposide (10 μM, Sigma) and H2O2 (15 μM, Sigma) or CCT007093 (10 μM, Santa Cruz, Santa Cruz, Calif., USA), and these drugs were added directly to the cells.

Test [2] deals with p53 phosphorylation in induced IRIS3 cells. Nature of the test: Immunoblot of p53 phosphorylation (p-p53/p53, ImageJ). How it is done:
(§3) IRIS 1 and IRIS3 induced for 72 h were exposed to 0, 10, 20 or 40 mJ/cm^2 of UVC irradiation. After 24 h, compared with IRIS1, induced IRIS3 cells treated with 0 mJ/cm^2 UVC had higher levels of BRCA1-IRIS, p53, WIP1, p-p38MAPK, yet similar levels of p38MAPK and p-p53 (FIG. 9F). In 10 and 20 mJ/cm^2 treated cells, BRCA1-IRIS, p53 and WIP1 levels remained higher in induced IRIS3 and no change in p38MAPK level (FIG. 9F). […] Finally, in 40 mJ/cm^2 UVC-treated cells, BRCA1-IRIS, p53 and WIP1 levels were still detectable in induced IRIS3 but not in IRIS1 cells (FIG. 9F). In contrast, IRIS1 and not induced IRIS3 cells contained detectable levels of p-p53 and p-p38MAPK (FIG. 9F). The intensity of the p53, p-p53, p38MAPK and p-p38MAPK bands in FIG. 9F were measured using ImageJ program (NIH) to estimate the level of p53 and p38MAPK activation in BRCA1-IRIS overexpressing cells. About 50% of p53 in IRIS1 cells was phosphorylated before UVC exposure that rose to 80-100% after the exposure (FIG. 9G). In contrast, only 20% of p53 was phosphorylated in induced IRIS3 cells before UVC dropping to <10% after UVC (FIG. 9G). p38MAPK phosphorylation was undetectable in IRIS1 cells before UVC exposure but rose to ˜100% after UVC (FIG. 9G). In induced IRIS3 cells, the 100% of p38MAPK phosphorylated before UVC exposure dropped to <20% after UVC exposure (FIG. 9G). […]

The subject of test [3] is HME cells. Put plainly: TUNEL detection (FragEL DNA fragmentation kit). Here is the method: (§4) HME and induced IRIS3 (72 h) cells were exposed to 40 mJ/cm^2 UVC, 10 μM of etoposide or 15 μM of H2O2 in the presence or absence of 10 μM of SB203580, p53 siRNA or 10 μM of CCT007093.
(§5) The Flurescein FragEL DNA Fragmentation Detection Kit was used according to the supplier (Calbiochem) protocol.

Test [4] deals with induced IRIS3 cells. Put plainly: TUNEL detection (FragEL DNA fragmentation kit). How it is done:
as §4, §5

The subject of test [5] is p53 phosphorylation in HME cells. Nature of the test: Immunoblot of p53 phosphorylation. Particulars: 10 μM CCT007093 alone. Here is the method: as §1, §2
Test [6] relates to p38MAPK phosphorylation in induced IRIS3 cells. Put plainly: Immunoblot of p38MAPK phosphorylation (p-p38MAPK/p38MAPK, ImageJ). Here is the method:
as §3
(In general: In western blotting, separated proteins are transferred to a membrane and probed.)

For test [7], the system named is AKT1, AKT2 and survivin expression in OVCAR-5 cells. Put plainly: Immunoblot of AKT1, AKT2 and survivin. To be noted: OVCAR-5, cisplatin 35 μM 24 h alone. The text has this:
(§6) Immunoblotting. […] Bcl-2 (clone 124; Dako Diagnostics AG), Bcl-xL (Transduction Laboratories), actin (Ab-1, CP01, Oncogene) and phospho-Survivin (T34, Novus Biologicals). Mouse antibody against BRCA1-IRIS was generated in our laboratory.
(§7) BRCA1-IRIS downregulation sensitizes ovarian cancer cell lines to cisplatin-induced survivin downregulation and cell death.

Test [8] has as its system HOSE/vector cells. Nature of the test: MTT cell viability after cisplatin. Particulars: cisplatin 48 h. An excerpt: (§8) MTT and activated caspases 3 and 7 assays. Done using the Cell Titer 96® AQueous One Solution Cell Proliferation Assay (#G3580, Promega) Caspase-Glo 3/7 Assay (#G8091, Promega), respectively as per manufacturer's instructions. Measurements were obtained using optical at 490 nm. Each experiment was done in 8 samples and the whole experiment was repeated 3 separate times.

The subject of test [9] is HOSE/AKT3 cells. Put plainly: MTT cell viability after cisplatin. Particulars: HOSE/AKT3, cisplatin 48 h.
Source text: as §8

Test [10] concerns HOSE/AKT2 cells. Nature of the test: MTT cell viability after cisplatin. To be noted: HOSE/AKT2, cisplatin 48 h.
Source text: as §8

In test [11] the test system is HOSE/AKT1 cells. Put plainly: MTT cell viability after cisplatin. To be noted: HOSE/AKT1, cisplatin 48 h.
Source text: as §8

Test [12] deals with HOSE/IRIS cells. Nature of the test: MTT cell viability after cisplatin. Particulars: cisplatin 48 h.
Source text: as §8

The test system of test [13] is HOSE/survivin cells. Nature of the test: MTT cell viability after cisplatin. To be noted: cisplatin 48 h.
Source text: as §8

The test system of test [14] is IGROV-1 cells. Nature of the test: MTT cell viability after cisplatin. Particulars: IGROV-1, cisplatin 48 h. Here is the method:
(§9) MTT and activated caspases 3 and 7 assays. Done using the Cell Titer 96® AQueous One Solution Cell Proliferation Assay (#G3580, Promega) Caspase-Glo 3/7 Assay (#G8091, Promega), respectively as per manufacturer's instructions. Measurements were obtained using optical at 490 nm. Each experiment was done in 8 samples and the whole experiment was repeated 3 separate times. […] As expected, low viability and high level of active caspase3/7 were detected in IGROV-1 (FIG. 5C), showing an IC50 of ˜5 μM.

Test [15] relates to OVCAR-5 cells. Put plainly: MTT cell viability after cisplatin. To be noted: OVCAR-5, cisplatin 48 h. Here is the method: as §9
In test [16] the test system is SK-OV-3 cells. Put plainly: MTT cell viability after cisplatin. Particulars: SK-OV-3, cisplatin 48 h. How it is done: as §9
Test [17] relates to MCAS cells. Put plainly: MTT cell viability after cisplatin. Particulars: cisplatin 48 h. Here is the method:
as §9

In test [18] the test system is BRCA1-IRIS, AKT and survivin expression in HOSE cells. Nature of the test: Immunoblot of BRCA1-IRIS, AKT and survivin after cisplatin. To be noted: 24 h.
Source text: as §6
Ovarian cancer cells expressing high level of survivin usually are cisplatin-resistant.

In test [19] the test system is BRCA1-IRIS, AKT and survivin expression in SK-OV-3 cells. Put plainly: Immunoblot of BRCA1-IRIS, AKT, p-AKT and survivin. Particulars: SK-OV-3, cisplatin 35 μM 24 h alone. Here is the method: as §6
BRCA1-IRIS-induced survivin expression is partially AKT-dependent. AKT (siRNA silences AKT1 and AKT2), BRCA1-IRIS, survivin or AKT and BRCA1-IRIS were silenced in SK-OV-3 cells (endogenously overexpressing all proteins, see FIG. 1B) for 72 h. […] Survivin silencing had no effect on BRCA1-IRIS or AKTs the expression (FIG. 2G). Identical results were obtained using MCAS cell line.
(§10) BRCA1-IRIS overexpression-induced survivin expression is partially PI3′K/AKT-independent. To study this further, MCAS or SK-OV-3 cells were exposed to the PI3′K inhibitor, LY294002 for 24 h or were transfected with BRCA1-IRIS siRNA for 48 h before they were exposed to LY294002 and left for another 24 h. […] Indeed, LY294002 decreased survivin expression in HOSE/vector cells but had little effect in HOSE/IRIS cells (FIG. 3B).
as §7

Test [20] deals with AKT and survivin expression in MCAS cells. Put plainly: Immunoblot of AKT, p-AKT and survivin. To be noted: cisplatin 35 μM 24 h alone. How it is done: as §6, §10, §7
[21] abbreviates: induced IRIS3, 20 mJ/cm^2 UVC in presence of 10 μM CCT007093.

Consider `O=C1/C(=C/c2cccs2)CC/C1=C\c1cccs1` [CCT007093], for which the p-p38MAPK level result is recorded as “increased” in test [1] and “remained high” in test [6] (induced IRIS3, 10 μM CCT007093 alone or with UVC). Besides, the p-p53 level result in [2] (induced IRIS3, 10 μM CCT007093 alone) is “increased”; in [5] it was “decreased”. Also, the “p53 phosphorylated (p-p53/p53 ratio)” value in [2] (setting [21]) is roughly 75%. In addition, the “number of TUNEL+ cells” value in test [3] (HME under UVC, etoposide or H2O2, 10 μM CCT007093 vs vehicle) was “not”; in [3] (HME, 10 μM CCT007093, no stress treatment) it was “increased slightly yet significantly”; in [4] (induced IRIS3, 10 μM CCT007093, no stress treatment) it was “not”; in test [4] (induced IRIS3 under UVC, etoposide or H2O2, 10 μM CCT007093 vs vehicle), “significantly increased”. For the same compound, the “p38MAPK phosphorylated (p-p38MAPK/p38MAPK ratio)” value in [6] (setting [21]) was roughly 55%.
For `N.N.[Cl][Pt][Cl]` [cisplatin], the “expression of AKT1, AKT2 and survivin” value in test [7], in [19] and in [20] was “modestly decreased” throughout. Besides, the half-maximal inhibitory concentration (IC50) (usually the concentration at which inhibition is half-maximal) in test [8] is 15 to 20 µM; in test [9] it was 15 to 20 µM; in test [10] it was roughly 75 µM; in [11], roughly 75 µM; in test [12], roughly 75 µM; in test [13] it was roughly 75 µM. Also, the IC50 was roughly 5 µM in test [14], roughly 25 µM in [15], roughly 40 µM in test [16] and roughly 40 µM in test [17]. Moreover, the “BRCA1-IRIS, AKT and survivin expression” value in test [18] (high concentrations cisplatin (>50 μM)) is recorded as “abolished”; in test [18] (low concentrations cisplatin (≦50 μM)), “triggered”.
